Experimental findings from publication PMC5489165, “Identification of benzazole compounds that induce HIV-1 transcription” (PLoS ONE, 2017) are described below.

Molecules are shown by their SMILES.

Series [1] deals with Kaposi's sarcoma associated herpesvirus (KSHV) in BCP-1 cells. Kind of series: KSHV activation assay in BCP-1 cells (ORF50 qRT-PCR). The class given is cell-based. The conditions noted are these: 24 h, up to 100 μM. Background: Real-time PCR tracks product formation cycle by cycle.
For series [2], the system named is HIV-1 Gag (p24) in ACH-2 cells. Briefly: Intracellular staining for HIV Gag in ACH-2 cells (flow cytometry). The class given is cell-based. The note with it: for Intracellular Gag, percentage of positive cells: 16 h, 30 μM Cmpd 1 or Cmpd 2, 10 μM SAHA, 1 mM JQ1 or 10 ng/ml PMA, single experiment (Fig 4A). Here is the method:
ACH-2 cells were treated as indicated and HIV-1 expression was monitored by intracellular staining for p24. Approximately, 1 × 10^6 cells were collected and washed in PBS before fixing by resuspending in 100 μl of BD Cytofix/Cytoperm (BD Biosciences, San Jose, CA) at 4°C for at least 20 min. Cells were then harvested by centrifugation and resuspended in 100 μl BD PermWash (50 mM NH4Cl, 5 mM EDTA, 0.1% saponin, 0.5% BSA, PBS and 1 mg/ml of anti-HIV-Gag PE (Clone KC57, Beckman Coulter, Brea CA). Cells were stained for 30 min, washed with the PermWash, and resuspended in FACS buffer (2 mM EDTA, 0.5% BSA, 1% paraformaldehyde in PBS). Cells were analyzed by flow cytometry using a FACSCalibur instrument (BD Biosciences). Flow cytometry was performed at the Boston University School of Medicine flow cytometry core.
Fig 4 Induction of HIV-1 expressing cells following treatment with latency reversing agents. ACH-2 cells were not treated or treated with a final concentration of 30 μM Cmpd 1 or Cmpd 2, 10 μM SAHA, 1 mM JQ1 or 10 ng/ml PMA for 16 h. Cells were stained using anti-HIV-Gag-PE and analyzed by flow cytometry. Numbers within the profiles represent the percentage of positive cells. These profiles are from a single experiment. B) Data from four independent experiments. Y-axis is mean of % p24 positive cells. * Cmpd 1 p-value […] compared to other treatments using a two-tailed t-test. TEXT PRINTED IN THE PICTURE: (A) Cmpd 1: Intracellular Gag: 65.6% | (A) Cmpd 2: Intracellular Gag: 33.9% | (A) SAHA: Intracellular Gag: 23.0% | (A) JQ1: Intracellular Gag: 16.7% | (A) PMA: Intracellular Gag: 94.2%
(In general: Flow cytometry measures light scatter and fluorescence of single cells or particles in a stream.)

Series [3] deals with Caco-2 cells. Briefly: Caco-2 assay. It counts as in vitro ADME, human. The conditions noted are these: 10 μM, 1 h, top to bottom chamber. Here is the method: Caco-2 cells obtained from ATCC were plated on filters of a 24-well Boyden chamber and allowed to replicate for five days. Prior to initiating a study, the integrity of the cell layer was assessed by measuring the transepithelial electrical resistance (TEER) values. […] After 1h, medium was removed from the bottom chamber. After completion of the assay, the integrity of the cell layer was measured by transfer of the fluorescent dye, Lucifer yellow, across the cell layer. Samples taken from the apical chamber at the start of the study and from the basal chamber at the end of the study were assessed for drug levels using LC-MS/MS technology and used to calculate the apparent permeability (Papp).

For `Nc1ccc2[nH]c(-c3ccc(-c4nc5cc(N)ccc5o4)cc3)nc2c1` [Compound 1, 2-(4-(5-amino-1H-benzimidazol-2-yl)phenyl)benzoxazol-5-amine], in series [1], the “Effect on ORF50 mRNA (KSHV)” value is on record as “little effect”. Moreover, the “Intracellular Gag, percentage of positive cells” value in series [2] is 65.6%. In series [2] (SAHA or JQ1 used at active concentrations), the “Fold more ACH-2 cells induced than with SAHA or JQ1” value was “approximately 2 fold”. Also, the “ACH-2 cells in which HIV-1 expression was induced” value in series [2] (text statement (Fig 4)) is given as “over 70%”. The “Caco-2 Papp” value in series [3] is 38 10^−6 cm/s; in series [3] (listed as compound 1) it was 4.8 10^−6 cm/s.
With `Nc1ccc2[nH]c(-c3ccc(-c4nc5ccc(N)cc5o4)cc3)nc2c1` [Compound 2], the “Effect on ORF50 mRNA (KSHV)” value in series [1] is given as “little effect”. In addition, the “Intracellular Gag, percentage of positive cells” value in series [2] was determined as 33.9%. For the same molecule, the “Caco-2 Papp” value in series [3] was 4.8 10^−6 cm/s; in series [3] (listed as compound 2), 38 10^−6 cm/s.
